Experimental data taken from US20230390270A1, “METHODS FOR TREATING REMITTING MULTIPLE SCLEROSIS” (BIOGEN MA INC., priority 2020, published 2023).

Assays:
[1] = test system: human iPSC-derived OPCs; test: Human iPSC-derived OPC differentiation (MBP+ cells); type: cell-based; conditions: 0.02 and 0.2 μM, 40 days
Protocol: Human induced pluripotent stem cell (iPSC) derived OPCs were maintained in proliferation media, composed of advanced DMEM-F12 supplemented with N2, B27, Glutamax, […] heparin (Sigma), 1 μM purmorphamine (Merck), 20 ng/ml FGF/PDGFa (Peprotech), 10 ng/ml IGF (Peprotech), and 60 ng/ml T3 (Sigma). To allow OPC differentiation, purmorphamine and FGF/PDGF were removed from the culture media. Compound 1 (0.02 and 0.2 μM) was incubated with human iPSC-derived OPCs in the differentiation media for 40 days.

[2] = target: T1, sphingosine-1-phosphate receptor 4 (S1P4) (Homo sapiens, UniProt O95977); conditions: cited from earlier work
T1 sequence (O95977 1-384): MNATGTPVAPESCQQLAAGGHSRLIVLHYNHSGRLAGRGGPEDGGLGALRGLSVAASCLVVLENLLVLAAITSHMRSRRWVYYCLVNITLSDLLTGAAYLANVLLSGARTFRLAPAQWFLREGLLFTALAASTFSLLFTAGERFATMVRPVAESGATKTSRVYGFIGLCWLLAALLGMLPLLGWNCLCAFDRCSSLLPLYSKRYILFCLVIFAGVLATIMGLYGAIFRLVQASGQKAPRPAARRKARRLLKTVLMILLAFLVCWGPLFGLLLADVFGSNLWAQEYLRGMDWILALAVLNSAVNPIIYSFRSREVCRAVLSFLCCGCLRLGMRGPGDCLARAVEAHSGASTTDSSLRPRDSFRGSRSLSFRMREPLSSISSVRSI

[3] = test system: neutrophils; test: Neutrophil and monocyte counts in the healthy volunteer study; type: in vivo, human
Protocol: (§1) Forty-two healthy volunteers received Compound 1 QD for 28 days (or before early withdrawal), with 6 individual participants per cohort receiving 1 mg (Cohort 1), 3 mg (Cohort 2), 10 mg (Cohort 3), 30 mg (Cohort 4), 60 mg loading dose with 10 mg maintenance dosing (Cohort 5) Compound 1, 60 mg (Cohort 6), or 90 mg loading dose on Day 1 and Day 2 with 30 mg maintenance dosing (Cohort 7). There were also 14 participants who received placebo in the study; 1 participant in Cohort 4 was misdosed on Day 19 and appeared to have received at least one 30 mg dose of Compound 1. The following protocol deviations were reported for participants in Cohorts 1 through 5: they received predose water ad lib (not restricted for 1 hour before and 1 hour after dose) and a meal administered 30 minutes postdose (not 4 hours postdose). A total of 49 participants completed treatment, including 37 participants who received active treatment.
(§2) Participants received the first dose of study treatment (Compound 1 or placebo) on Day 1 and continued to receive once-daily study treatment through Day 28. Participants remained in the clinic throughout the dosing period. Participants were discharged on Day 29 after completing all assessments.

[4] = test system: LPC induced corpus callosum demyelination; test: LPC induced corpus callosum demyelination model; type: in vivo; conditions: rat LPC corpus callosum model
[5] = test system: rat OPCs; test: Sterol metabolite levels in rat OPC cultures (Metabolon HD4); type: cell-based; conditions: rat OPC culture
Protocol: Enriched populations of oligodendrocytes from female Sprague Dawley postnatal day 2 (P2) rats were grown in culture. Briefly, the forebrain was dissected and placed in Hank's buffered salt solution (HBSS) (Life technologies). The tissue was cut into 1 mm fragments and incubated at 37° C. for 15 min in 0.01% trypsin and 10 μg/ml DNase. Dissociated cells were plated on poly-D-lysine (PDL)-coated T75 tissue culture flasks and grown at 37° C. for 10 days in Dulbecco's Modified Eagle Medium (DMEM) with 20% fetal calf serum (Life technologies). Oligodendrocyte precursors (A2B5+) were collected by shaking the flask overnight at 200 rpm at 37° C., resulting in a 95% pure population. Cultures were maintained in a defined growth medium (high glucose DMEM, 0.1% BSA, 50 ug/ml Apo-transferrin, 5 ug/ml insulin, 30 nM sodium selenite, 10 nM biotin and hydrocortisone) with 10 ng/ml fibroblast growth factor/platelet-derived growth factor (FGF/PDGF) (Peprotech) for 2-3 days. For assessing the ability of Compound 1 to promote the differentiation of rat A2B5+ progenitor cells into mature myelin basic protein positive (MBP+) myelinating oligodendrocytes, A2B5+ cells were plated into 10-cm PDL coated culture plates in FGF/PDGF free growth medium supplemented with 10 ng/ml CNTF and 15 nM T3 and were immediately treated for with Compound 1. The cell pellets were collected at 24 hours and 72 hours in culture and stored at −80° C. The cell pellets were subsequently shipped to Metabolon (Morrisville, NC, USA) and maintained at −80° C. during shipping and storage until processed. The cell pellet samples were extracted with methanol under vigorous shaking for 2 min (Glen Mills GenoGrinder 2000) to precipitate protein and dissociate small molecules bound to protein or trapped in the precipitated protein matrix, followed by centrifugation to recover chemically diverse metabolites. The resulting extract were next aliquot and analyzed on Metabolon's HD4 platform. Several types of quality control samples, including recovery standards added prior to extraction, technical replicates from a pool combined from each experimental sample, process and solvent blanks, and spiked a cocktail of QC standards, were applied during sample preparation and analysis for quality assessment and filtering failed samples.

[6] = Plasma concentration of Compound 1 in healthy volunteers; type: in vivo, human
Protocol: as §1
Based on these observations, a population PK/PD model was developed using Monolix to describe circulating cholesterol concentration as a function of plasma concentration of Compound 1 and exposure. The model was developed from cholesterol data from the study described above (Study 1) as well as two additional clinical studies (Study 2 and Study 3) in healthy volunteers. […]

[7] = test system: LPC induced spinal cord demyelination; test: LPC induced spinal cord demyelination model; type: in vivo, rat; conditions: oral, daily from Day 3, sacrifice Day 9
[8] = test system: cuprizone demyelination in the corpus callosum; test: Cuprizone/rapamycin demyelination model; type: in vivo, mouse; conditions: oral gavage daily in the last 2 weeks of cuprizone/rapamycin treatment
Protocol: Nine week-old C57/BL6 mice were fed with chow pellets containing 0.3% cuprizone (Harlan) and injected with rapamycin intraperitoneally for 6 weeks (10 mg/kg, 5 days/week). Animals were treated with Compound 1 by oral gavage daily in the last 2 weeks of cuprizone/rapamycin treatment. Animals were sacrificed at the end of the last treatment and brains were dissected to determine the effect of Compound 1 on remyelination in the corpus callosum (white matter) and cerebral cortex regions. Coronal slices (septostriatal section, 1 mm thickness) through the corpus callosum were cut, then cut on the midsagittal plane and embedded in epon, oriented to visualize the entire cross-section of the midsagittal corpus callosum. Myelinated axons in the corpus callosum lesions were quantified by toluidine blue staining. ** p<0.01, *** p<0.001. […] Error bars denote the standard error of the mean. N=39 for the study.

[9] = test system: rat A2B5+ oligodendrocytes / DRG neuron co-culture; test: OPC/DRG co-culture myelination assay (MBP Western blot); type: cell-based; conditions: 13 days co-culture
Protocol: Embryonic dorsal root ganglia (DRG) dissected from embryonic day 14 (E14) to day 17 (E17) Sprague Dawley rats, were plated on poly-L-lysine (100 μg/ml)-coated cover slips for 2 weeks and grown in Neurobasal medium supplemented with B27 (Life technologies). To remove proliferating glial cells, cultures were pulsed twice with fluorodeoxyuridine (20 μM) from days 2-6 and from days 8-10. Then rat A2B5+ oligodendrocytes were added to DRG neuron drop cultures in the presence or absence of compounds at 37° C. with 5% CO2 for 13 days. The culture media (Neurobasal medium supplemented with B27 and 100 ng/ml nerve growth factor (NGF)) with fresh compounds were changed twice per week. Myelination is determined by Western blotting to quantify MBP level.

[10] = test system: human OPC-rat DRG co-culture; test: Human OPC-rat DRG co-culture myelination (MBP ICC); type: cell-based; conditions: 0.02, 0.2, or 2 μM vs DMSO control
Protocol: Embryonic dorsal root ganglia (DRG), dissected from embryonic day 14 (E14) to day 17 (E17) Sprague Dawley rats, were plated on poly-L-lysine (100 μg/ml)-coated cover slips for 2 weeks and grown in Neurobasal medium supplemented with B27 (Life Technologies). To remove proliferating glial cells, cultures were pulsed twice with fluorodeoxyuridine (20 μM) from days 2-6 and from days 8 to 10. Then human OPCs, prepared as described above, were added to DRG neuron drop cultures. The culture media for rat OPC-DRG co-culture is Neurobasal medium supplemented with B27 and 100 ng/ml NGF with fresh compounds changed twice per week. The culture media for human OPC-rat DRG co-culture is the proliferation media for human OPCs without purmorphamine and FGF/PDGF. Compound 1 (0.02, 0.2, or 2 μM) or DMSO control treatment started 1 day after OPCs were added to DRG culture. To visualize myelination, cultures were fixed by 4% paraformaldehyde (PFA) and labeled with anti-myelin basic protein (MBP) antibodies to identify changes in myelination by ICC.

[11] = test system: circulating cholesterol; test: Population PK/PD model (Monolix) of circulating cholesterol vs Compound 1 plasma concentration; design: species or system human
Excerpt: Based on these observations, a population PK/PD model was developed using Monolix to describe circulating cholesterol concentration as a function of plasma concentration of Compound 1 and exposure. The model was developed from cholesterol data from the study described above (Study 1) as well as two additional clinical studies (Study 2 and Study 3) in healthy volunteers. In Study 2, thirty healthy volunteers received a single oral dose of Compound 1 with 6 individual participants per cohort receiving 3 mg (Cohort 1), 10 mg (Cohort 2), 30 mg (Cohort 3), 60 mg (Cohort 4), 100 mg (Cohort 5). There were also 9 participants who received placebo in the study. In Study 3, 8 healthy adult volunteers received a single dose of 30 mg of Compound 1.

[12] = test system: circulating cholesterol; test: 28-day multiple-dose study in healthy volunteers: circulating cholesterol and serum sterols; type: in vivo, human
Protocol: as §1, §2
Blood was periodically withdrawn from each volunteer and immediately stored at −80° C. For measuring metabolite concentrations in human serum, the samples were centrifuged and the resulting supernatant was used for further analysis.
Free oxysterols were extracted from the samples with methanol using the Biocrates Kit filter plate. The plate was loaded with an internal standard mixture beforehand. The metabolite concentrations were determined by UHPLC-MS/MS with multiple reaction monitoring (MRM) in a positive mode using a SCIEX API 5500 QTRAP® (AB SCIEX, Darmstadt, German) instrument with electrospray ionization (ESI). Data were quantitated using appropriate mass spectrometry software and imported in Biocrates Met/DQ™ software for further analysis.

Compound: CC[C@H]1CC[C@@H](Oc2ccc3cc(CN4CCC(C(=O)O)CC4)ccc3c2)CC1 [Compound 1, 1-((6-(((1s,4s)-4-ethylcyclohexyl)oxy)naphthalen-2-yl)methyl)piperidine-4-carboxylic acid]
- number of MBP+ cells relative to control [1]: increased
- S1P4 activity [2]: known inhibitor
- absolute monocyte counts ([3]; 60 mg QD, except the patient who discontinued): remained throughout the study in the normal range
- other participants with decline in absolute neutrophil count ([3]; Cohort 4, 30 mg): 6 participants
- other participants with decline in absolute neutrophil count ([3]; Cohort 5, 60 mg loading dose followed by 10 mg maintenance dose): 6 participants
- other participants with decline in absolute neutrophil count ([3]; Cohort 6): 5 participants
- participants with neutropenia AE leading to discontinuation ([3]; Cohort 6, 60 mg): 1 participant
- other participants with decline in absolute neutrophil count ([3]; Cohort 7): 5 participants
- participants with neutropenia AE leading to discontinuation ([3]; Cohort 7, 90 mg loading dose followed by 30 mg maintenance dose): 1 participant
- other participants with decline in absolute neutrophil count ([3]; all doses ≥30 mg): 22 participants
- absolute neutrophil count from baseline ([3]; doses ≥30 mg): dose-dependent decline
- extent of neutrophil count decline ([3]; low doses <30 mg, Cohorts 1, 2, and 3): indistinguishable from placebo control
- participants who developed CTCAE grade 3 neutropenia ([3]; whole study of Example 1): Two of 56
- remyelination [4]: enhanced remyelination
- 7-DHC vs vehicle control ([5]; 24 hours): 8.3 folds
- cholesterol vs vehicle control ([5]; 24 hours): 0.64 folds
- desmosterol vs vehicle control ([5]; 24 hours): 0.44 folds
- 7-DHC vs vehicle control ([5]; 72 hours): 12.86 folds
- cholesterol vs vehicle control ([5]; 72 hours): insignificant change
- desmosterol vs vehicle control ([5]; 72 hours): 0.4 folds
- steady-state concentration of Compound 1 ([6]; daily dose of 60 mg): about 3 μg/mL
- time of increase to steady-state concentrations of Compound 1 in plasma ([6]; daily dosing): approximately 15 days
- dose for 90% of maximum observed biologic effect (ED90) [7]: 3 mg/kg
- minimal efficacious dose (remyelinated axon fibers in the lesions) [7]: 0.3 mg/kg
- remyelination (myelinated axons, toluidine blue) [7]: enhanced remyelination in a dose dependent manner
- remyelination (myelinated axons in corpus callosum lesions) [8]: dose dependent enhancement of remyelination
- myelination (MBP level by Western blotting) [9]: promoted myelination in OPC/DRG co-culture assay in a dose-dependent manner
- amount of MBP+ myelinated axon clusters relative to control [10]: increased
- concentration of circulating cholesterol in the model ([11]; by daily dose): reduced at all daily doses higher than 10 mg
- predicted decrease in circulating cholesterol ([11]; model prediction, 60 mg QD): approximately 35%
- EC50 for reduction in circulating cholesterol concentration ([11]; population PK/PD model, plasma concentration of Compound 1): about 3 μg/mL
- 7-dehydrocholesterol (7-DHC) level ([12]; healthy human volunteers): causes accumulation of 7-dehydrocholesterol
- average decrease in total cholesterol ([12]; healthy volunteers, 60 mg dose, Study 1): approximately 20%
- total circulating cholesterol ([12]; healthy volunteers, QD over 28 days, FIG. 1 (10, 30, 60 mg per day vs placebo)): gradual, time- and dose-dependent reduction
